Each structure is given as a SMILES string. Inconclusive results are not listed. The source made the active and inactive calls. No rule for the calls is given here.

The data set relates to S. typhimurium/E. coli reverse mutation, colony counts. The data set is described as follows: Bacterial reverse mutation test (aka Ames test) summary data. In outline:
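S. typhimurium his⁻ strains (TA97–TA1538) and E. coli WP2 uvrA pKM101 trp⁻, dosed over a range with or without rat, hamster or mouse liver S9. Preincubated 20 min at 37° C (or plate incorporation), plated in agar, incubated usually two days. Revertant colonies counted against negative controls.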
In general terms: In the Ames test, an excess of revertant colonies over the control signals mutagenicity.
`O=C(O)/C=C\C(=O)O`: the outcome is “inactive; negative”.
For the compound `CN(C)CCN(Cc1ccccc1)c1ccccn1`, the outcome was “inactive; negative”.
As to `CCCCCON=O`, the outcome was “active; positive”.
With `Oc1ccc(O)cc1`, the outcome is “inactive; negative”.
For `FC(Cl)(Cl)C(F)(Cl)Cl`, the outcome was “active; weakly positive”.
Regarding `Clc1ccc(Cl)cc1`, the outcome was “inactive; negative”.
For `CCCCOC(=O)c1ccccc1C(=O)OCCCC` the value was “inactive; negative”; for `O=C1CCCCCN1`, “inactive; negative”.
Consider `CCc1ccccc1N`, for which the outcome is “inactive; negative”.
For the compound `C=COC(C)=O`, the outcome was “inactive; negative”.
`COc1cc2c(c3oc(=O)c4c(c13)CCC4=O)[C@@H]1C=CO[C@@H]1O2`: the outcome is “active; positive”.
On to `CCCCCC(=O)O`, for which the outcome is “inactive; negative”.
On to `CC=C1CC2C=CC1C2` (stereo not drawn), for which the outcome is “inactive; negative”.
In the case of `Brc1cc(Br)c(Oc2cc(Br)c(Br)cc2Br)cc1Br`, the outcome was “inactive; negative”.
The value for `O=C(O)c1ccc(C(=O)O)cc1` was “inactive; negative”; that for `Cc1ccc([N+](=O)[O-])c(C)c1` was “active; positive”; that for `ClCc1ccccn1` was “active; positive”.
As for `CCOC(=O)CBr`, the outcome was “active; positive”.
On to `Nc1ccc(N)c2ccccc12`, for which the outcome was “active; positive”.
As for `CC(Cl)CN(C)C` (stereo not drawn), the outcome was “active; positive”.
For the compound `CC1CCC(CO)CC1` (stereo not drawn), the outcome is “inactive; negative”.
Consider `CC1OC(C)OC(C)O1` (stereo not drawn), for which the outcome was “active; positive”.
For the compound `CC(Cl)(Cl)[N+](=O)[O-]`, the outcome is “active; positive”.
Consider `O=C1OC(=O)c2ccccc21`, for which the outcome is “inactive; negative”.
On to `CC(=O)c1ccncc1`, for which the outcome is “inactive; negative”.
Consider `O=C(O)COc1cc(Cl)c(Cl)cc1Cl`, for which the outcome is “inactive; negative”.
Consider `Cc1ccc(N=Nc2c(O)c(S(=O)(=O)O)cc3ccc(S(=O)(=O)O)cc23)c(C)c1`, for which the outcome is “active; weakly positive”.
For `CCNNCC` the value was “inactive; negative”; for `O[C@H]([C@H](O)[C@@H](O)CBr)[C@H](O)CBr`, “active; positive”; for `Cc1cc(-c2ccc(N=Nc3ccc4c(S(=O)(=O)O)cc(S(=O)(=O)O)c(N)c4c3O)c(C)c2)ccc1N=Nc1ccc2c(S(=O)(=O)O)cc(S(=O)(=O)O)c(N)c2c1O`, “active; positive”.
For `O=C1C2(Cl)C3(Cl)C4(Cl)C(Cl)(Cl)C5(Cl)C3(Cl)C1(Cl)C5(Cl)C24Cl` (stereo not drawn) the value was “inactive; negative”; for `ClC1=C(Cl)[C@]2(Cl)[C@@H]3[C@@H]4C[C@@H]([C@H]5O[C@@H]45)[C@@H]3[C@@]1(Cl)C2(Cl)Cl`, “inactive; negative”; for `Nc1ccc(Sc2ccc(N)cc2)cc1`, “active; positive”.
As to `CC(=O)c1cc(C)oc1C`, the outcome was “active; positive”.
Regarding `Cc1nc2ccc(Cl)cc2[nH]1`, the outcome is “active; positive”.
Consider `C=CC(=O)OCC`, for which the outcome is “active; weakly positive”.
Consider `OCC(Cl)CCl` (stereo not drawn), for which the outcome is “active; positive”.
For the compound `COc1ccc(CN(CCN(C)C)c2ccccn2)cc1`, the outcome is “inactive; negative”.
With `O=c1ccc2ccccc2o1`, the outcome is “active; positive”.
Regarding `COc1ccc(O)cc1`, the outcome is “inactive; negative”.
For `CC(=O)Nc1ccc(C(=O)CCl)cc1` the value was “active; positive”; for `O=c1cc(-c2ccccc2)oc2ccc3ccccc3c12`, “inactive; negative”.
As for `ClC(Cl)Br`, the outcome is “inactive; negative”.
For `CC(C)(OO)c1ccccc1` the value was “active; positive”.
For `NC1CCCCC1` the value was “inactive; negative”; for `C=CC(=C)C`, “inactive; negative”; for `CCCCCCCC/C=C\CCCCCCCC(=O)O` (tested in a mixture with another compound), “inactive; negative”.
Turning to `CC(CCl)OC(C)CCl` (stereo not drawn), the outcome was “active; positive”.
As to `Cc1ccc2ncccc2c1`, the outcome is “active; positive”.
`OCC(Br)=C(Br)CO`: the outcome is “active; positive”.
Take `COc1ccc(N)cc1`: the outcome was “active; positive”.
For `Cc1ccc(Nc2ccc(Nc3ccc(C)cc3S(=O)(=O)O)c3c2C(=O)c2ccccc2C3=O)c(S(=O)(=O)O)c1`, the outcome is “active; weakly positive”.
Consider `Oc1ccc(/C=C/c2cc(O)cc(O)c2)cc1`, for which the outcome was “inactive; negative”.
With `CCCCCCOC(=O)c1ccccc1`, the outcome was “inactive; negative”.
For the compound `CCCCC(CC)COCCCN` (stereo not drawn), the outcome is “inactive; negative”.
In the case of `OC(c1ccc(Cl)cc1)(c1ccc(Cl)cc1)c1ccc(Cl)cc1`, the outcome was “inactive; negative”.
Turning to `CCCCC(CC)COCCC#N` (stereo not drawn), the outcome was “inactive; negative”.
On to `[O-][Br+2]([O-])O`, for which the outcome was “active; positive”.
Regarding `Cc1ccccc1C(OCCN(C)C)c1ccccc1` (stereo not drawn), the outcome is “inactive; negative”.
Turning to `CC1(C)CC(N=C=O)CC(C)(CN=C=O)C1` (stereo not drawn), the outcome was “inactive; negative”.
The value for `c1ccc2occc2c1` was “inactive; negative”; that for `c1ccc(SCCSc2ccccc2)cc1` was “inactive; negative”.
For `N#CCC#N` the value was “inactive; negative”; for `CCC(C)O` (stereo not drawn), “inactive; negative”.
On to `Oc1c(Cl)cccc1Cl`, for which the outcome was “inactive; negative”.
For `ClCCCl`, the outcome was “active; positive”.
The value for `OCCN1CC1` was “active; positive”; that for `CC(=O)Nc1ccc(C(=O)O)cc1` was “inactive; negative”; that for `CN(C)c1ccc(C2(c3ccc(N(C)C)cc3)OC(=O)c3cc(N(C)C)ccc32)cc1` was “inactive; negative”.
For the compound `Cc1cccc(O)c1C`, the outcome is “inactive; negative”.
For the compound `CC(N)=O`, the outcome was “inactive; negative”.
For `Nc1ccc(S(=O)(=O)Nc2nccs2)cc1` the value was “inactive; negative”.
`O=C(O)CBr`: the outcome is “active; positive”.
For the compound `C=C(C)C1CC=C(C)C(OC(C)=O)C1` (stereo not drawn), the outcome was “inactive; negative”.
Regarding `CCOC=O`, the outcome was “inactive; negative”.
Regarding `CN(C)[C@@H]1C(=O)C(C(N)=O)=C(O)[C@@]2(O)C(=O)C3=C(O)c4c(O)cccc4[C@@](C)(O)[C@H]3[C@H](O)[C@@H]12`, the outcome is “inactive; negative”.
For `[CH3][Pb]([CH3])([CH3])[CH3]`, the outcome was “inactive; negative”.
For the compound `BrC(Br)C(Br)Br`, the outcome was “inactive; negative”.
Consider `CCCCCCCCC1CO1` (stereo not drawn), for which the outcome was “inactive; negative”.
Turning to `CC(=O)Nc1ccccc1`, the outcome was “inactive; negative”.
For the compound `CC=CC=CC=O`, the outcome was “active; positive”.
The value for `Cc1ccc2c(c1[N+](=O)[O-])C(=O)c1ccccc1C2=O` was “active; positive”.
For `O=[N+]([O-])c1ccccc1O` the value was “inactive; negative”; for `CC1OC1C` (stereo not drawn), “active; positive”; for `O=Cc1c(Cl)cccc1Cl`, “inactive; negative”.
With `CC(=O)OC(C(=O)c1ccccc1)c1ccccc1` (stereo not drawn), the outcome is “inactive; negative”.
The value for `Nc1ccc(-c2ccc(N)c(Cl)c2)cc1Cl` was “active; positive”.
For `CCNC(=S)NCC`, the outcome was “inactive; negative”.
Take `Cc1cc(C)cc(O)c1`: the outcome is “inactive; negative”.
For the compound `Clc1ccc(C(c2ccc(Cl)cc2)C(Cl)Cl)cc1`, the outcome is “inactive; negative”.
With `CCCN(CCC)c1c([N+](=O)[O-])cc(C(F)(F)F)cc1[N+](=O)[O-]`, the outcome is “active; positive”.
In the case of `CC(C)(c1ccc(OCC2CO2)cc1)c1ccc(OCC2CO2)cc1` (stereo not drawn), the outcome is “active; positive”.
Turning to `Cc1ccccc1C(N)=O`, the outcome was “inactive; negative”.
For `C=Cc1ccccc1` the value was “inactive; negative”; for `C=CC=O`, “active; weakly positive”; for `CC(=O)C(C)=O`, “active; positive”.
The value for `O=C(O)CN(CCN(CC(=O)O)CC(=O)O)CC(=O)O` was “inactive; negative”.
Turning to `NC(N)=S`, the outcome is “inactive; negative”.
For the compound `C=CC1(C)OC(=O)N(c2cc(Cl)cc(Cl)c2)C1=O` (stereo not drawn), the outcome is “inactive; negative”.
The value for `COC(=O)C(c1ccccc1)C1CCCCN1` (stereo not drawn) was “inactive; negative”.
The value for `C(=C/c1ccccc1)/c1ccccc1` was “inactive; negative”.
In the case of `N#CCBr`, the outcome was “inactive; negative”.
Turning to `CC[n+]1c(-c2ccccc2)c2cc(N)ccc2c2ccc(N)cc21`, the outcome was “active; positive”.
Consider `O=C(O)C=Cc1ccc(C=CC(=O)O)cc1`, for which the outcome was “inactive; negative”.
For `CN(C)C(=S)[S-].CN(C)C(=S)[S-].[Pb+2]` the value was “active; positive”; for `O=C(O)c1ccccc1[N+](=O)[O-]`, “active; positive”; for `COc1ccc(N)cc1N`, “active; positive”.
For `Oc1ccc2ccccc2c1N=Nc1ccccc1`, the outcome was “active; positive”.
Turning to `CC(C)(C)OCC1CO1` (stereo not drawn), the outcome was “active; positive”.
Turning to `COC(=O)Nc1cccc(OC(=O)Nc2cccc(C)c2)c1`, the outcome was “active; positive”.
In the case of `O=C1OC2(c3ccccc31)c1cc(Br)c(O)c(Br)c1Oc1c2cc(Br)c(O)c1Br`, the outcome was “active; positive”.
The value for `N#CCO` was “inactive; negative”; that for `CC(C)(OOC(C)(C)c1ccccc1)c1ccccc1` was “inactive; negative”.

The values are drawn from PubChem BioAssay AID2202554 (NIEHS Division of Translational Toxicology (DTT)).
